Measurements: US20080045559A1, “TOCOPHEROL-MODIFIED THERAPEUTIC DRUG COMPOUNDS” (SONUS PHARMACEUTICALS, INC., priority 2003, published 2008)

Assays:
Assay in all cases: In vitro cytotoxicity GI50, Example 48
Format in all cases: cell-based
[1] = tested on: H460 (NSCLC); conditions: Homo sapiens, NCI-H460; H460; Alamar Blue or Sulfarhodamine B; read-out: GI50
[2] = tested on: HCT-15 (COLON); conditions: Homo sapiens, Alamar Blue or Sulfarhodamine B
[3] = tested on: HCT-116 (COLON); conditions: Homo sapiens, HCT-116, HCT-116; Alamar Blue or Sulfarhodamine B
Protocol: The study was performed using either Alamar Blue or Sulfarhodamine B assays.

[4] = tested on: SKOV-3 (OVARIAN); conditions: Homo sapiens, SK-OV-3, Alamar Blue or Sulfarhodamine B

**Q.** With `CC[C@@]1(O)C(=O)OCc2c1cc1n(c2=O)Cc2cc3cc(OC(=O)CCC(=O)Oc4c(C)c(C)c5c(c4C)CC[C@@](C)(CCC[C@H](C)CCC[C@H](C)CCCC(C)C)O5)ccc3nc2-1` [VESA-10-HO-CPT, Butanedioic acid, (2R)-3,4-dihydro-2,5,7,8-tetramethyl-2-[(4R,8R)-4,8,12-trimethyltridecyl]-2H-1-benzopyran-6-yl (4S)-4-ethyl-3,4,12,14-tetrahydro-4-hydroxy-3,14-dioxo-1H-pyrano[3′,4′:6,7]indolizino[1,2-b]quinolin-9-yl ester] as the compound, how does the GI50 [1] read?
**A.** Its GI50 is 155 nM.

**Q.** What about the GI50 [2] of the same compound?
**A.** Its GI50 is 1290 nM.

**Q.** What about the GI50 [3] of the same compound?
**A.** Its GI50 is 186 nM.

**Q.** What about the GI50 [4] of the same compound?
**A.** Its GI50 is 97.7 nM.
